The results in this text go back to patent US9952206B2, “Immunoassay for detecting kratom, its constituents and their use” (Randox Laboratories Limited, priority 2013, dated 2018).

This assay concerns antibodies of the invention (antisera generated in response to the immunogen of Example 4). As to the kind of experiment: Competitive chemiluminescent biochip immunoassay, standard curve generation using generated antiserum. As to conditions: for IC50 (standard concentration which produces 50% B/B0): biochip-immobilised IgG fraction of antiserum, hapten-HRP conjugate of Example 5; for % CR (percentage cross-reactivity based on 100% specificity to mitragynine): relative to mitragynine = 100%.

Values after ≈ are worked out from the molar mass of the structure shown.

Turning to `CCC1CN2CCc3c([nH]c4cccc(O)c34)C2CC1C(=COC)C(=O)OC` [8-Desmethylmitragynine, (E)-2-[(2S,3S,12bS)-3-ethyl-8-hydroxy-1,2,3,4,6,7,12,12b-octahydroindolo[2,3-a]quinozilizin-2-yl]-3-methoxy propenoic acid methyl ester], the “IC50 (standard concentration which produces 50% B/B0)” value is 1.532 ng/mL (≈ 3.98 nM) and the “% CR (percentage cross-reactivity based on 100% specificity to mitragynine)” value stood at 77.87%. Where the note is “calibrator 0.313 ng/ml”, this molecule came in with a B/Bo of 74%. Further, the B/Bo (calibrator 0.625 ng/ml) worked out at 63%. The B/Bo (calibrator 1.250 ng/ml) is reported as 54%. This molecule returned a B/Bo (calibrator 2.500 ng/ml) of 42%. Also, the B/Bo (calibrator 5.000 ng/ml) came to 29%. The B/Bo (calibrator 10.000 ng/ml) is on record as 18%. In addition, the B/Bo (calibrator 20.000 ng/ml) came to 13%.
For `CC[C@@H]1CN2CCc3c([nH]c4cccc(OC)c34)[C@H]2C[C@@H]1/C(=C\OC)C(=O)OC` (stereo in doubt) [Mitragynine, (E)-2-[(2S,3S,12bS)-3-ethyl-8-methoxy-1,2,3,4,6,7,12,12b-octahydroindolo[2,3-a]quinozilizin-2-yl]-3-methoxy propenoic acid methyl ester], the “IC50 (standard concentration which produces 50% B/B0)” value was 1.193 ng/mL (≈ 2.99 nM) and the “% CR (percentage cross-reactivity based on 100% specificity to mitragynine)” value was 100.00%. Where the note is “calibrator 0.313 ng/ml”, the B/Bo turned out to be 75%. Where the note is “calibrator 0.625 ng/ml”, the B/Bo is listed as 63%. This molecule gave a B/Bo (calibrator 1.250 ng/ml) of 49%. Under “calibrator 2.500 ng/ml”, the B/Bo was 37%. The B/Bo (calibrator 5.000 ng/ml) turned out to be 25%. Moreover, under “calibrator 10.000 ng/ml”, the B/Bo is 17%. The molecule further displayed a B/Bo (calibrator 20.000 ng/ml) of 11%.
